For orientation: IC50 means the concentration needed to halve the response being measured. What is called microsomal CLint is a measure of how fast metabolising enzymes remove a compound, apart from limits set by blood flow. For orientation: half-life means the time needed for the level to fall by half in the phase considered.

One data set has as its system HIV-1 HT/92/599. Briefly: HIV-1 reverse transcriptase activity after infection of fresh human PBMCs. It is filed as cell-based. The method, boiled down: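 PHA-P/IL-2-stimulated fresh human PBMCs infected with HIV-1; supernatant reverse transcriptase activity measured by tritiated TTP incorporation on poly rA/oligo dT, 90 min at 37° C. Toxicity from 7-day uninfected PBMC culture read by XTT; TI = TC50/EC50.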

A further data set concerns HIV-1RF. The data set is described as follows: Anti-HIV cytoprotection in CEM-SS cells infected with HIV-1RF (XTT). Format: cell-based. The following applies: six days, XTT; read-out: CEM-SS/HIV-1RF EC50 ± SD. The procedure: To evaluate whether conjugated protease inhibitors retain the ability to protect against HIV-1 infection, CEM-SS cells infected with the RF strain of HIV-1 were treated with test compounds for six days, and then cell viability was monitored using the tetrazolium dye XTT. […] A value for Therapeutic Index (TI) was calculated as TC50/EC50.
(In general: Formazan colour is commonly taken as a measure of viable cells.)

Another data set deals with CYP2D6 (Homo sapiens (Human), UniProt P10635). Briefly: CYP450 inhibition in human liver microsomes: CYP2D6. Background: Microsomes from liver hold many membrane-bound enzymes, among them those of drug oxidation.
Data set [1] relates to PBMCs. Briefly: PBMC macromolecule synthesis (tritiated precursor incorporation). Format: cell-based, human. The procedure: Cellular macromolecule synthesis was evaluated using tritiated precursor incorporation assays. PBMCs (5×10^4 cells/well) were cultured in the presence or absence of test compound for 7 days at 37 C, 5% CO2 in a 96-well microtiter plate. On day 6 of the incubation, 1 uCi of [methyl-3H]-thymidine for DNA synthesis, [5-3H]-uridine for RNA synthesis, or [3,4,5-3H]-leucine for protein synthesis was added to compound-treated cells, and the plate was further incubated for 16 hours. The cells were transferred to a glass fiber filtermat using an Inotech cell harvester. The filtermats were washed with distilled water then sealed in a bag with scintillation fluid. Incorporated radioactivity was measured using a Wallac scintillation counter.

Another data set deals with CYP1A2 (Homo sapiens (Human), UniProt P05177). Briefly: CYP450 inhibition in human liver microsomes: CYP1A2.
The subject of data set [2] is PBMCs. Briefly: PBMC cytotoxicity (XTT). It is filed as cell-based, human. The note with it: 7 days. How it is done:
Mononuclear cells were isolated from fresh human peripheral blood cells by Ficoll-Hypaque density gradient by centrifugation at 600 g for 30 minutes. Banded peripheral blood mononuclear cells (PBMCs) were aspirated from the resulting interface and washed with phosphate buffered saline by low speed centrifugation. Cell viability was evaluated by Trypan Blue dye exclusion. […] Plates were incubated at 37° C., 5% CO2 for 7 days prior to cytotoxicity evaluation. XTT measurement for cytotoxicity.

Data set [3] is described as follows: Metabolic stability in human liver microsomes.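 For t1/2: microsomal protein 0.5 mg/mL.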 The gist of the method:
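Substrate depletion: compounds at 3 μM final with pooled mixed-sex human liver microsomes (0.5 mg/mL) in 0.1 M phosphate pH 7.4 at 37 °C. Remaining parent quantified by LC-MS/MS.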

Data set [4] has as its system cynomolgus monkey hepatocytes. Briefly: Metabolic stability in cynomolgus monkey hepatocytes. The following applies: 0.1 uM. It is filed as in vitro ADME.

Several values for one entry are separate records, joined by “and”; a condition that tells them apart may be missing. Identical values can stand only once. Like-named read-outs stand apart in the source and are kept apart here. Some results are limits rather than exact numbers.

Sequence of CYP1A2 (P05177 whole entry): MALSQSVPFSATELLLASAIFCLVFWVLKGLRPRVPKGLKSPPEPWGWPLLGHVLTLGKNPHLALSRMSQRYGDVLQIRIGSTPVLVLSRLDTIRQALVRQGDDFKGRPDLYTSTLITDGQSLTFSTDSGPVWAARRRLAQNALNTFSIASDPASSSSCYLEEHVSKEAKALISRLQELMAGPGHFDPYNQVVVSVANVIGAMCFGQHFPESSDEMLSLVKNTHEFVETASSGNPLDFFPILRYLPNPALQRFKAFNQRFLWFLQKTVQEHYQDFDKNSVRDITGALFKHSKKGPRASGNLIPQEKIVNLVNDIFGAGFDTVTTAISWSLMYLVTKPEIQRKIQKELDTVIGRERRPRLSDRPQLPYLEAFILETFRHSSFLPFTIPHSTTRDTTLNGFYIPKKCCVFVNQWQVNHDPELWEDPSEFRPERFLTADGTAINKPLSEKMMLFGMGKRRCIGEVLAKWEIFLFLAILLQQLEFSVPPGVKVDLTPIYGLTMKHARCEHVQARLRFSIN
Sequence of CYP2D6 (P10635 whole entry): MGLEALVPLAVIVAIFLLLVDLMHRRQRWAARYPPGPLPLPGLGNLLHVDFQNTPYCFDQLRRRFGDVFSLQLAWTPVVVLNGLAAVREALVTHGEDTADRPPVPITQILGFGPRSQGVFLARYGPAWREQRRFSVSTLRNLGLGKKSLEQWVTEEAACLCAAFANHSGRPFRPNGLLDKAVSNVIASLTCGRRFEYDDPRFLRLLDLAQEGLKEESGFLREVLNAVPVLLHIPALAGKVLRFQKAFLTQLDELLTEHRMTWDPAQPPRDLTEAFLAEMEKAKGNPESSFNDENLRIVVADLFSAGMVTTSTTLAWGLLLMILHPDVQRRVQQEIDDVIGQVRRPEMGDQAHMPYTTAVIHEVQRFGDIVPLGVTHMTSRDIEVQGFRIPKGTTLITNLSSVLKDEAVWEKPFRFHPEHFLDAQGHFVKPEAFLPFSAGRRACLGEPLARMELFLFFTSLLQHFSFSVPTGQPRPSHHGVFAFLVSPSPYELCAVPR

Consider `COCCOCCOCCOC(=O)NC(C(=O)NC(Cc1ccccc1)C(O)CN(Cc1ccc(-c2ccccn2)cc1)NC(=O)C(NC(=O)OC)C(C)(C)C)C(C)(C)C` (stereo not drawn) [mono-mPEG3-Atazanavir, {1-[N′-[2-Hydroxy-3-(2-{2-[2-(2-methoxy-ethoxy)-ethoxy]-ethoxycarbonylamino}-3,3-dimethyl-butyrylamino)-4-phenyl-butyl]-N′-(4-pyridin-2-yl-benzyl)-hydrazinocarbonyl]-2,2-dimethyl-propyl}-carbamic Acid Methyl Ester], for which the EC50 in the data set on HIV-1 HT/92/599 (Human immunodeficiency virus 1, PBMC, 168 h, read-out: PBMC/HIV-1HT/92/599 EC50 ± SD, seven days, reverse transcriptase activity) was less than 20 nM; with HIV-1 HT/92/599 (read-out: PBMC/HIV-1HT/92/599 EC50 ± SD, seven days, reverse transcriptase activity), 30 nM and 20.4 nM and 20 nM and 18.7 nM; in the data set with HIV-1RF it was 3 ± 2 nM. Moreover, the IC50 against CYP2D6 and at CYP1A2 was greater than 25 µM in each case. In the data set on PBMCs [1] (DNA synthesis), the “Thymidine Incorporation (PBMC) TC50” value was 36.6 µM. Moreover, the “Uridine Incorporation (PBMC) TC50” value with PBMCs [1] (RNA synthesis) came out at 27.7 µM. Moreover, the “Leucine Incorporation (PBMC) TC50” value in the data set with PBMCs [1] (protein synthesis) amounted to 82.0 µM. The “XTT (PBMC) TC50” value in the data set on PBMCs [2] was found to be 338.9 µM. In data set [3] (both, human, pooled human liver microsomes, pH 7.4, CLint ± SEM, human liver microsomes), this compound had a microsomal CLint at 3 μM of 248 ± 31.7 µL/min/mg. In data set [3] (both, human, pooled human liver microsomes, pH 7.4, t1/2, human liver microsomes), the half-life at 3 μM was 5.58 min. In addition, the “CLint ± SEM” value in data set [3] (human liver microsomes, 3 μM) came out at 172 ± 1.39 μL/min/mg protein; in data set [4], 21.0 ± 0.00203 μL/min/10^6 cells. For the same compound, the t1/2 in data set [3] (human liver microsomes, 3 μM) is listed as 8.04 min; in data set [4], 65.9 min.

(Values after patent US10806794B2, “Protease inhibitors having enhanced features” (priority 2008, dated 2020).)
